According to patent publication US10538554B2, “Peptides and uses therefor as antiviral agents” (priority 2015, dated 2020):
Bridge positions count the residues as written; N and C are the ends. Square brackets hold non-standard residues; d marks the D form. Peptide text beside a SMILES is read from it.

Tests used:
H9N2 A/Iran/16/2000 = conditions: 48 h, 50 μM
[1] = tested on: H1N1 A1/Malaysia/302/1954; conditions: A1/Malaysia/302/1954, 48 h, 50 μM
H3N8 A/Miami/2/63 = conditions: A/Miami/2/63, 48 h, 50 μM
H3N2 A/HK/8/1968 = conditions: A/HK/8/1968, 48 h, 50 μM

In the case of CC[C@@H](C)[C@H]1NC(=O)[C@@H](Cc2ccccc2)NC(=O)[C@@H](CCCNC(=N)N)NC(=O)[C@@H](CS)NC(=O)[C@@H](Cc2c[nH]c3ccccc23)NC(=O)[C@@H]([C@H](C)O)NC(=O)[C@H](NC(=O)[C@H](CCCCN)NC(=O)[C@H](CCCCN)NC(=O)[C@H](CCCNC(=N)N)NC(=O)[C@@H](N)CCCNC(=N)N)CSSC[C@H](C(=O)O)NC(=O)[C@@H](CC(N)=O)NC1=O [PSP III B2, H-RRKKctwcrfinc-OH] (H-RRKK[dC][dT][dW][dC][dR][dF][dI][dN][dC]-OH; disulfide 5-13), the “% inhibition H9N2” value (H9N2 A/Iran/16/2000) was 74%, the “% inhibition H1N1” value [1] was 71% and the “% inhibition H3N8” value (H3N8 A/Miami/2/63) was 87%. For the same compound, the “% inhibition H3N2” value (H3N2 A/HK/8/1968) was 96%.
In the case of CC[C@@H](C)[C@H]1NC(=O)[C@@H](Cc2ccccc2)NC(=O)[C@@H](CCCNC(=N)N)NC(=O)[C@@H](CC(=O)O)NC(=O)[C@@H](Cc2c[nH]c3ccccc23)NC(=O)[C@@H]([C@H](C)O)NC(=O)[C@H](NC(=O)[C@H](CCCCN)NC(=O)[C@H](CCCCN)NC(=O)[C@H](CCCNC(=N)N)NC(=O)[C@@H](N)CCCNC(=N)N)CSSC[C@H](C(=O)O)NC(=O)[C@@H](CC(N)=O)NC1=O [PSP III B3, H-RRKKctwdrfinc-OH] (H-RRKK[dC][dT][dW][dD][dR][dF][dI][dN][dC]-OH; disulfide 5-13), the “% inhibition H9N2” value (H9N2 A/Iran/16/2000) was 20%, the “% inhibition H1N1” value [1] was 12% and the “% inhibition H3N8” value (H3N8 A/Miami/2/63) was 43%. The “% inhibition H3N2” value (H3N2 A/HK/8/1968) was 83%.
CC[C@@H](C)[C@H]1NC(=O)[C@@H](Cc2ccccc2)NC(=O)[C@@H](CCCNC(=N)N)NC(=O)[C@@H](CCC(=O)O)NC(=O)[C@@H](Cc2c[nH]c3ccccc23)NC(=O)[C@@H]([C@H](C)O)NC(=O)[C@H](NC(=O)[C@H](CCCCN)NC(=O)[C@H](CCCCN)NC(=O)[C@H](CCCNC(=N)N)NC(=O)[C@@H](N)CCCNC(=N)N)CSSC[C@H](C(=O)O)NC(=O)[C@@H](CC(N)=O)NC1=O [PSP III B4, H-RRKKctwerfinc-OH] (H-RRKK[dC][dT][dW][dE][dR][dF][dI][dN][dC]-OH; disulfide 5-13) was tested, and the “% inhibition H9N2” value (H9N2 A/Iran/16/2000) was 86%, the “% inhibition H1N1” value [1] was 81% and the “% inhibition H3N8” value (H3N8 A/Miami/2/63) was 91%. For the same compound, the “% inhibition H3N2” value (H3N2 A/HK/8/1968) was 100%.
CC[C@@H](C)[C@H]1NC(=O)[C@@H](Cc2ccccc2)NC(=O)[C@@H](CCCNC(=N)N)NC(=O)CNC(=O)[C@@H](Cc2c[nH]c3ccccc23)NC(=O)[C@@H]([C@H](C)O)NC(=O)[C@H](NC(=O)[C@H](CCCCN)NC(=O)[C@H](CCCCN)NC(=O)[C@H](CCCNC(=N)N)NC(=O)[C@@H](N)CCCNC(=N)N)CSSC[C@H](C(=O)O)NC(=O)[C@@H](CC(N)=O)NC1=O [PSP III B6, H-RRKKctwGrfinc-OH] (H-RRKK[dC][dT][dW]G[dR][dF][dI][dN][dC]-OH; disulfide 5-13) was tested, and the “% inhibition H9N2” value (H9N2 A/Iran/16/2000) was 93%, the “% inhibition H1N1” value [1] was 85% and the “% inhibition H3N8” value (H3N8 A/Miami/2/63) was 96%. For the same compound, the “% inhibition H3N2” value (H3N2 A/HK/8/1968) was 100%.
With CC[C@@H](C)[C@H]1NC(=O)[C@@H](Cc2ccccc2)NC(=O)[C@@H](CCCNC(=N)N)NC(=O)[C@@H]([C@H](C)CC)NC(=O)[C@@H](Cc2c[nH]c3ccccc23)NC(=O)[C@@H]([C@H](C)O)NC(=O)[C@H](NC(=O)[C@H](CCCCN)NC(=O)[C@H](CCCCN)NC(=O)[C@H](CCCNC(=N)N)NC(=O)[C@@H](N)CCCNC(=N)N)CSSC[C@H](C(=O)O)NC(=O)[C@@H](CC(N)=O)NC1=O [PSP III B8, H-RRKKctwirfinc-OH] (H-RRKK[dC][dT][dW][dI][dR][dF][dI][dN][dC]-OH; disulfide 5-13) the “% inhibition H9N2” value (H9N2 A/Iran/16/2000) was 81%, the “% inhibition H1N1” value [1] was 88% and the “% inhibition H3N8” value (H3N8 A/Miami/2/63) was 91%. For the same compound, the “% inhibition H3N2” value (H3N2 A/HK/8/1968) was 100%.
